Data on 14 compounds can be found in US11679107B2 (Eisai R&D Management Co., Ltd., priority 2018, dated 2023).

Structures are written as SMILES. Read-outs that look alike come from different tables or passages of the source.

The target in assay [1] is T1, SF3b complexes (Homo sapiens, UniProt O75533+Q7RTV0).
T1 construct: endogenous in cells; host or cells: Nuclear extracts; A HeLa S3 extract preparation is described for the in vitro splicing assay
In words: Scintillation proximity assay (SPA) with [3H]-labelled pladienolide probe. Format: binding. The settings on record: SF3B1 (WT); geometric mean; read-out: SPA-ATS GMean IC50 (nM) SF3B1 (WT). A digest of the protocol: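 SF3b complexes captured from nuclear extracts on anti-SF3B1 antibody SPA beads; test compounds pre-incubated 30 min before 2.5 nM [3H]-pladienolide probe added, then 30 min incubation. Bound probe read by scintillation; values from non-linear regression of concentration–response curves.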

Assay [2] deals with Panc 05.04 cells (SF3b K700E mutant). As to the kind of experiment: Cell proliferation and viability, CellTiter-Glo, 72 hours. Format: cell-based. To be noted: 72 h; for GI50: Panc 05.04, read-out: CTGlo-ATS GMean GI50 (nM) 72 h PANC0504.1, geometric mean. A digest of the protocol: (§1)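 Cells grown in RPMI-1640 with 10% FBS (Panc 05.04 with added insulin, 15% FBS total) were exposed to an 11-point half-log dilution, typically 10 μM–100 pM, at 0.1% DMSO for 72 h at 37 °C. ATP content was read by CellTiter-Glo luminescence. Percent inhibition was set against a time-zero plate and DMSO vehicle wells, on a −100% (cidal) to 100% (uninhibited growth) scale.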
(Cellular ATP, detected with luciferase, serves as a proxy for viable cell number.)

Assay [3] relates to NCI-H1568 cells (high MCL1). The description is as above. Format: cell-based. To be noted: for GI50: geometric mean. A digest of the protocol:
as §1

The test system of assay [4] is Ad2 variant pre-mRNAs spliced in HeLa S3 nuclear extracts. In words: In vitro splicing assay (IVS), RT-qPCR of spliced product. In kind it is biochemical. The settings on record: for IC50: geometric mean; for Ratio Ad2.1/2.2: ratio of IVS IC50 Ad2.1 to Ad2.2. In short, it runs like this: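 Ad2 variant pre-mRNA (2 ng) with FTZΔi control RNA in HeLa S3 nuclear extract (8 μg) was pre-incubated with compound or DMSO for 15 min at 30 °C. Splicing ran 90 min at 30 °C after adding 0.5 mM ATP, creatine phosphate and MgCl2. Spliced product was quantified by TaqMan RT-qPCR, normalized to DMSO, and curve-fitted.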

Setting [5] is: NCI-H1568, read-out: CTGlo-ATS GMean GI50 (nM) 72 h NCIH1568.1, NCIH1568.1 cells, 72 h.
[6] abbreviates: NCIH1568.1 cells, 72 h, −100% cidal, 0% static, 100% maximal growth.
[7] abbreviates: PANC0504.1, -100% = cidal, 0% = static, 100% = uninhibited growth.
Where [8] appears, read: 72 h, NCIH1568.1, -100% = cidal, 0% = static, 100% = uninhibited growth.
[9] abbreviates: NCI-H1568, read-out: CTGlo-ATS GMean GI50 (nM) 72 h NCIH1568.1, 72 h, NCIH1568.1.
Where [10] appears, read: Ad2.1 pre-mRNA substrate, read-out: qPCR-IVS-ATS GMean IC50 (nM) Ad2.1.
Setting [11] is: Ad2.2 pre-mRNA substrate, read-out: qPCR-IVS-ATS GMean IC50 (nM) Ad2.2.
Setting [12] is: NCI-H1568, 72 h, read-out: CTGlo-ATS GMean GI50 (nM) 72 h NCIH1568.1, NCIH1568.1 cells, 72 h.
The mark [13] stands for this setting: NCI-H1568, 72 h, read-out: CTGlo-ATS GMean GI50 (nM) 72 h NCIH1568.1, 72 h, NCIH1568.1.

Regarding `C/C(=C\c1cc(F)cc(Cl)c1)[C@H]1OC(=O)C[C@H](O)CC[C@H](C)[C@@H](OC(=O)N2CCN(C)CC2)/C=C/[C@@H]1C` [Compound 167], in assay [1], the half-maximal inhibitory concentration (IC50) (commonly the concentration at which inhibition is half-maximal) is 3.19 nM. In assay [2] (PANC0504.1 cells, −100% cidal, 0% static, 100% maximal growth), the “CTGlo-ATS Mean MinResponse % 72 h PANC0504.1” value is on record as −85.316%. The values for the GI50 in assay [2] (PANC0504.1 cells) and in assay [3] (setting [5]) were 34.1 nM and 52.4 nM, respectively. In addition, the “CTGlo-ATS Mean MinResponse % 72 h NCIH1568.1” value in assay [3] (setting [6]) was −70.414%.
`C/C(=C\c1cccc(COC(=O)N2CCC3(COC3)C2)c1)[C@H]1OC(=O)C[C@H](O)CC[C@H](C)[C@@H](OC(=O)N2CCN(C)CC2)/C=C/[C@@H]1C` [Compound 255, [3-[(E)-2-[(2S,3S,4E,6R,7S,10R)-10-hydroxy-3,7-dimethyl-6-(4-methylpiperazine-1-carbonyl)oxy-12-oxo-1-oxacyclododec-4-en-2-yl]prop-1-enyl]phenyl]methyl 2-oxa-7-azaspiro[3.4]octane-7-carboxylate]: the IC50 in assay [1] was 7.32 nM. Besides, the “CTGlo-ATS Mean MinResponse % 72 h PANC0504.1” value in assay [2] (setting [7]) is −61.401%. For the same compound, the values for the GI50 in assay [2] (PANC0504.1) and in assay [3] (setting [9]) were 65.8 nM and 67.6 nM, respectively. Moreover, in assay [3] (setting [8]), the “CTGlo-ATS Mean MinResponse % 72 h NCIH1568.1” value is listed as −24.942%.
The corresponding values for `C/C(=C\c1cccc(S(=O)(=O)N2CCC(F)(F)C2)c1)[C@H]1OC(=O)C[C@H](O)CC[C@H](C)[C@@H](OC(=O)N2CCN(C)CC2)/C=C/[C@@H]1C` [Compound 204, [(2S,3S,4E,6R,7S,10R)-2-[(E)-1-[3-(3,3-difluoropyrrolidin-1-yl)sulfonylphenyl]prop-1-en-2-yl]-10-hydroxy-3,7-dimethyl-12-oxo-1-oxacyclododec-4-en-6-yl] 4-methylpiperazine-1-carboxylate] are 23.5 nM, −94.081%, 82 nM, 81.9 nM and −24.924%.
`C/C(=C\c1cc(F)cc(N2CCN(C(=O)[C@H]3CCOC3)CC2)c1)[C@H]1OC(=O)C[C@H](O)CC[C@H](C)[C@@H](OC(=O)N2CCN(C)CC2)/C=C/[C@@H]1C` [Compound 151]: the IC50 in assay [1] was 3.41 nM; in assay [4] (setting [10]) it was 17.9 nM; in assay [4] (setting [11]) it was 11.4 nM. For the same compound, the GI50 (commonly the concentration at which growth is held to half of that of the control) in assay [3] (setting [12]) is 2.24 nM. Moreover, in assay [3] (setting [6]), the “CTGlo-ATS Mean MinResponse % 72 h NCIH1568.1” value is listed as −83.213%.
For the compound `C/C(=C\c1cc(F)cc(N2CCN(C(=O)Cn3cccn3)CC2)c1)[C@H]1OC(=O)C[C@H](O)CC[C@H](C)[C@@H](OC(=O)N(C)CCc2ccc(O)cc2)/C=C/[C@@H]1C` [Compound 239, [(2S,3S,4E,6R,7S,10R)-2-[(E)-1-[3-fluoro-5-[4-(2-pyrazol-1-ylacetyl)piperazin-1-yl]phenyl]prop-1-en-2-yl]-10-hydroxy-3,7-dimethyl-12-oxo-1-oxacyclododec-4-en-6-yl] N-[2-(4-hydroxyphenyl)ethyl]-N-methylcarbamate], the figures for the IC50 in assay [1], in assay [4] (setting [10]) and in assay [4] (setting [11]) were 150 nM, 103 nM and 48 nM, respectively. Also, in assay [4], the “Ratio Ad2.1/2.2” value came to 2.151. In assay [3] (setting [8]), the “CTGlo-ATS Mean MinResponse % 72 h NCIH1568.1” value is recorded as −77.758%. For the same compound, the GI50 in assay [3] (setting [13]) came to 63.5 nM.
`C/C(=C\c1cc(F)cc(N2CCCN(CC3CC3)C2=O)c1)[C@H]1OC(=O)C[C@H](O)CC[C@H](C)[C@@H](OC(=O)N2CCN(C)CC2)/C=C/[C@@H]1C` [Compound 80]: the results for the IC50 in assay [1], in assay [4] (setting [10]) and in assay [4] (setting [11]) were 1.59 nM, 6.64 nM and 8.57 nM, respectively. Further, the GI50 in assay [3] (setting [12]) was 2.68 nM. In addition, the “CTGlo-ATS Mean MinResponse % 72 h NCIH1568.1” value in assay [3] (setting [6]) is −69.196%.
As to `C/C(=C\c1cc(F)cc(N2CCN(C(=O)Cn3cccn3)CC2)c1)[C@H]1OC(=O)C[C@H](O)CC[C@H](C)[C@@H](OC(=O)NCc2ccncn2)/C=C/[C@@H]1C` [Compound 222, [(2S,3S,4E,6R,7S,10R)-2-[(E)-1-[3-fluoro-5-[4-(2-pyrazol-1-ylacetyl)piperazin-1-yl]phenyl]prop-1-en-2-yl]-10-hydroxy-3,7-dimethyl-12-oxo-1-oxacyclododec-4-en-6-yl] N-(pyrimidin-4-ylmethyl)carbamate], the IC50 stood at 23.6 nM in assay [1], 116 nM in assay [4] (setting [10]) and 53.2 nM in assay [4] (setting [11]). Also, in assay [4], the “Ratio Ad2.1/2.2” value came out at 2.179. For the same compound, the “CTGlo-ATS Mean MinResponse % 72 h NCIH1568.1” value in assay [3] (setting [8]) is listed as −58.410%. In addition, the GI50 in assay [3] (setting [13]) was 69.4 nM.
As to `C/C(=C\c1cc(F)c2nnn(C3(C)CCOCC3)c2c1)[C@H]1OC(=O)C[C@H](O)CC[C@H](C)[C@@H](OC(=O)N2CCN(C)CC2)/C=C/[C@@H]1C` [Compound 156], the IC50 in assay [1] turned out to be 3.95 nM; in assay [4] (setting [10]), 8.37 nM; in assay [4] (setting [11]), 7.91 nM. Moreover, in assay [3] (setting [12]), the GI50 was found to be 1.27 nM. Moreover, in assay [3] (setting [6]), the “CTGlo-ATS Mean MinResponse % 72 h NCIH1568.1” value is recorded as −87.369%.
Turning to `C/C(=C\c1cc(F)cc(N(C(C)C)C2CCN(S(C)(=O)=O)CC2)c1)[C@H]1OC(=O)C[C@H](O)CC[C@H](C)[C@@H](OC(=O)N2CCN(C)CC2)/C=C/[C@@H]1C` [Compound 176], the IC50 in assay [1] was found to be 38.5 nM; in assay [4] (setting [10]) it was 49.7 nM; in assay [4] (setting [11]), 31.2 nM. In addition, the GI50 in assay [3] (setting [5]) is 19 nM. Further, the “CTGlo-ATS Mean MinResponse % 72 h NCIH1568.1” value in assay [3] (setting [6]) was −88.183%.
As to `C/C(=C\c1cc(F)cc(N(C)C2CCN(C(=O)c3cnccn3)CC2)c1)[C@H]1OC(=O)C[C@H](O)CC[C@H](C)[C@@H](OC(=O)N2CCN(C)CC2)/C=C/[C@@H]1C` [Compound 189], the IC50 was found to be 6.8 nM in assay [1], 16.9 nM in assay [4] (setting [10]) and 10.3 nM in assay [4] (setting [11]). The GI50 in assay [3] (setting [5]) turned out to be 9.53 nM. Besides, the “CTGlo-ATS Mean MinResponse % 72 h NCIH1568.1” value in assay [3] (setting [6]) is −76.052%.
The corresponding values for `C/C(=C\c1cc(F)cc(N(C)C2CCN(S(=O)(=O)c3ccccc3)CC2)c1)[C@H]1OC(=O)C[C@H](O)CC[C@H](C)[C@@H](OC(=O)N2CCN(C)CC2)/C=C/[C@@H]1C` [Compound 185] are 186 nM, 543 nM, 46.6 nM, 114 nM and −99.538%.
Regarding `COc1ccc(Cn2nnc3c(F)cc(/C=C(\C)[C@H]4OC(=O)C[C@H](O)CC[C@H](C)[C@@H](OC(=O)N5CCN(C)CC5)/C=C/[C@@H]4C)cc32)cc1` [Compound 166], the IC50 was found to be 23.8 nM in assay [1], 1510 nM in assay [4] (setting [10]) and 48.3 nM in assay [4] (setting [11]). For the same compound, the GI50 in assay [3] (setting [5]) was determined as 17.6 nM. Besides, in assay [3] (setting [6]), the “CTGlo-ATS Mean MinResponse % 72 h NCIH1568.1” value is on record as −66.370%.
The corresponding values for `C/C(=C\c1cc(F)c2nnn(C3CCN(C(=O)OC(C)(C)C)CC3)c2c1)[C@H]1OC(=O)C[C@H](O)CC[C@H](C)[C@@H](OC(=O)N2CCN(C)CC2)/C=C/[C@@H]1C` [Compound 144] are 12.9 nM, 23 nM, 17.8 nM, 4.12 nM and −95.432%.
`C/C(=C\c1cc(F)cc(N2CCN(C(=O)Cn3cccn3)CC2)c1)[C@H]1OC(=O)C[C@H](O)CC[C@H](C)[C@@H](OC(=O)N2CCN(Cc3cccc(O)c3)CC2)/C=C/[C@@H]1C` [Compound 251, [(2S,3S,4E,6R,7S,10R)-2-[(E)-1-[3-fluoro-5-[4-(2-pyrazol-1-ylacetyl)piperazin-1-yl]phenyl]prop-1-en-2-yl]-10-hydroxy-3,7-dimethyl-12-oxo-1-oxacyclododec-4-en-6-yl] 4-[(3-hydroxyphenyl)methyl]piperazine-1-carboxylate]: the IC50 in assay [1] was 52.4 nM; in assay [4] (setting [10]), 49.7 nM; in assay [4] (setting [11]) it was 28.1 nM. Moreover, in assay [4], the “Ratio Ad2.1/2.2” value is 1.765. In assay [3] (setting [8]), the “CTGlo-ATS Mean MinResponse % 72 h NCIH1568.1” value is listed as −87.236%. For the same compound, the GI50 in assay [3] (setting [9]) was found to be 13.4 nM.
